The source of these data is patent publication US5747535A, “Selective thrombin inhibitors” (priority 1995, dated 1998).

The assay deals with T1, trypsin (Bos taurus, UniProt P00760).
T1 sequence (P00760 24-246): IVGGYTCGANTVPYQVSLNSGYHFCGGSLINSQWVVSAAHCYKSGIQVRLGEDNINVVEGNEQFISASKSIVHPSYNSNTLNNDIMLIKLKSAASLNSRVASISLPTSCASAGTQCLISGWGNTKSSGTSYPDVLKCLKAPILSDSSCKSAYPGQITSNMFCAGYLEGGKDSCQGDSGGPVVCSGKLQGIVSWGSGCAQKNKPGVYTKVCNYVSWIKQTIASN
Nature of the assay: biochemical. It is filed as biochemical. Particulars: 20 μM substrate; read-out: Inhibitory activity for trypsin, Ki. The method, then: To identify the selectivity for thrombin over trypsin of the compound of the present invention, the inhibitory activity for trypsin of the compound of formula (I) is measured as Ki value according to the same method as the above method for determination of thrombin inhibitory activity, and then the ratio of the activity for trypsin to the activity for thrombin is calculated. In this case, the procedure for determination of inhibitory activity for trypsin is substantially identical to that for thrombin, except that N-benzoyl-Val-Gly-Arg para-nitroanilide hydrochloride is used as the substrate.
As the substrate 20μM solution of N-benzoyl-Val-Gly-Arg-p-nitroanilide hydrochloride was used, and the inhibitor was used in various concnetrations within the range of […]. In addition, trypsin was dissolved in 0.1N HCl, adjusted to the concentration of 45 μg/ml with the said tris buffered solution just before the experiment, and then used in an amount of 40μl. As in the experiment for thrombin, a total volume of the reaction solution was 1.5 ml and the remaining procedure was conducted in the same manner.

As usually defined, the Ki is a dissociation constant, usually derived from enzyme kinetics or from competition with a known ligand. Take `CN(C(=O)[C@H](Cc1ccc(C(=N)NN)cc1)NS(=O)(=O)c1ccc2ccccc2c1)C1CCCC1` [Example 1, (S)-N-cyclopentyl-N-methyl-3-(4-amidrazonophenyl)-2-(2-naphthylsulfonylamino)propionamide]: the Ki was 3.19 µM.
